Experiment [1] concerns SCLC strain SHP-77. Nature of the experiment: MTT assay for cell survival, SCLC SHP-77 in vitro. The conditions noted are these: ED50 for killing of SCLC strain SHP-77 in vitro, 4 days, 0 = no detectable activity. The class given is cell-based, human. In general terms: Tetrazolium assays rely on reduction of a dye to a coloured formazan, in cell work by metabolically active cells.

In experiment [2] the test system is A549 NSCLC cells. Nature of the experiment: Inhibition of A-549 tumor growth in vivo in nude mice. Also noted: species or system athymic nude mice. The conditions noted are these: percent inhibition of tumor growth in nude mice; i.p. 5 mg/kg/every second day or 10 mg/kg/every fourth day. Here is the method:
(§1) Compounds having high in vitro cytotoxic activity were tested against implanted tumors in vivo. Athymic nude mice were implanted subcutaneously with suspensions (2 million SHP-77 SCLC cells, 1 million A549 NSCLC cells or 1.5 million PC3 PC cells) in Matrigel suspension. On the eighth day after tumor implantation groups of 5 mice bearing implants were injected intraperitoneally with the compounds being tested at 5 mg/kg/every second day or at 10 mg/kg/every fourth day; control animals were injected with an equal volume of isotonic saline. Less soluble compounds were initially dissolved in dimethyl sulfoxide (DMSO) and diluted with medium. In those cases the control injections contained the same concentration of DMSO. Tumor size was measured with a caliper three times per week. Tumor volume was calculated by the formula: Volume(cc)=3.14×(length)×(width)^2/6 At autopsy tumors were removed and weighed. Tumor inhibition was calculated on both weight and measurement basis. In each Table, an IC50 value of “0” represents no detectable anti-cancer activity for a drug in a given cell line and “Stim.” indicates the observation of a stimulatory activity on the growth of the cancer cell line.

For experiment [3], the system named is PC3 PC cells. Nature of the experiment: Inhibition of PC3 tumor growth in vivo in nude mice. Also noted: species or system athymic nude mice; key to PC3 In vivo % inhib.: an IC50 value of “0” represents no detectable anti-cancer activity for a drug in a given cell line; “Stim.” indicates the observation of a stimulatory activity on the growth of the cancer cell line. The conditions noted are these: for PC3 In vivo % inhib.: percent inhibition of tumor growth in nude mice, prostate cancer, i.p. 5 mg/kg/every second day or 10 mg/kg/every fourth day. The gist of the method: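 Groups of 5 nude mice dosed i.p. at 10 mg/kg every fourth day or 5 mg/kg every second day, beginning 8 days after s.c. implantation of PC3 (1.5 million), A549 (1 million) or SHP-77 (2 million) cells in Matrigel; saline or DMSO-matched controls. Tumor weight at necropsy and caliper-derived volume both used to calculate inhibition.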

The subject of experiment [4] is NSCLC strain A-549. Nature of the experiment: MTT assay for cell survival, NSCLC A-549 in vitro. The class given is cell-based, human. To be noted: ED50 for killing of NSCLC strain A-549 in vitro, 4 days.
Experiment [5] concerns SHP-77 SCLC cells. In words: Inhibition of SHP-77 tumor growth in vivo in nude mice. On the set-up: species or system athymic nude mice. To be noted: 5 mg/kg/every second day or 10 mg/kg/every fourth day. As to the method: as §1
Experiment [6] concerns cultured human cancer cell lines. In words: MTT assay for cell survival, cell line not stated. The class given is cell-based. To be noted: 4 days, read-out: concentration causing 50% cell death.
For experiment [7], the system named is implanted tumors. Nature of the experiment: In vivo anti-cancer activity after oral administration. On the set-up: species or system nude mice.

Where two headings read alike, the source gives them in different places.

This is an account of results in patent US7858349B2, “Anti-cancer compounds” (The Regents of the University of Colorado, priority 1999, dated 2010).

For the compound `O=C(C=Cc1c(F)c(F)c(F)c(F)c1F)NC(Cc1ccc2ccccc2c1)C(=O)N1CCN(c2ccccn2)CC1` (stereo not shown) [Analog M-1216, F5c-Nal-Pypz], in experiment [1] (read-out: SHP-77 In vitro IC50), the IC50 was > 60 µM. Also, the “A-549 In vivo % inhib.” value in experiment [2] came out at 32%. Further, the “PC3 In vivo % inhib.” value in experiment [3] is reported as 22%.
As for `CC1(C)CC(NC(=O)C(Cc2ccc(OCc3c(Cl)cccc3Cl)cc2)NC(=O)c2cnccn2)CC(C)(C)N1` (stereo not shown) [Analog M-1368, 2Pyz-OC2Y-Atmp], in experiment [1] (read-out: SCLC SHP-77 IC50), the IC50 stood at 3.2 µM. Besides, in experiment [2], the “A-549 In vivo % inhib.” value is 47%. Also, the “PC3 In vivo % inhib.” value in experiment [3] is on record as “Stim”.
Consider `CC1(C)CC(NC(=O)C(Cc2ccc(OCc3c(Cl)cccc3Cl)cc2)NC(=O)CCCc2ccc(N(CCCl)CCCl)cc2)CC(C)(C)N1` (stereo not shown) [Analog M-1384, Chl-OC2Y-Atmp], for which the IC50 was found to be 1.8 µM in experiment [1] (read-out: SCLC SHP-77 IC50) and 1.9 µM in experiment [4]. In addition, the “A-549 In vivo % inhib.” value in experiment [2] amounted to 46%. Moreover, the “PC3 In vivo % inhib.” value in experiment [3] is “Stim”.
As for `CC(C(=O)NC(Cc1ccc(OCc2c(Cl)cccc2Cl)cc1)C(=O)NC1CC(C)(C)NC(C)(C)C1)c1cccc(C(=O)c2ccccc2)c1` (stereo not shown) [Analog M-1392, Ktpf-OC2Y-Atmp], the IC50 in experiment [1] (read-out: SCLC SHP-77 IC50) is 2.9 µM. The “A-549 In vivo % inhib.” value in experiment [2] was 28%. Also, the “PC3 In vivo % inhib.” value in experiment [3] amounted to 18%.
On to `O=C(NC(Cc1ccc2ccccc2c1)C(=O)N1CCN(c2ccccn2)CC1)C(c1ccc(Cl)cc1)c1ccc(Cl)cc1` (stereo not shown) [Analog M-1242, Bcpa-Nal-Pypz], for which the IC50 in experiment [1] (read-out: SHP-77 In vitro IC50) is > 60 µM. In addition, in experiment [2], the “A-549 In vivo % inhib.” value is given as 19%. Also, in experiment [3], the “PC3 In vivo % inhib.” value is reported as 36%.
Take “Pentafluorocinnamoyl-O-(2,6-dichlorobenzyl)tyrosine-4-amino-2,2,6,6-tetramethylpiperidine [Analog M570, reference compound]”: the “inhibition of growth of the SCLC line SHP-77” value in experiment [5] came to 85%. Besides, the “inhibition of PC cell line PC3 tumors” value in experiment [3] (nude mice, 5 mg/kg/every second day or 10 mg/kg/every fourth day) is recorded as 65%. The IC50 in experiment [6] came out at 0.15 µM. For the same compound, in experiment [7], the “in vivo anti-cancer activity after oral administration” value was “active”.
Turning to `O=C(C=Cc1c(F)c(F)c(F)c(F)c1F)NC(Cc1ccc(I)cc1)C(=O)NC1CCN(Cc2ccccc2)CC1` (stereo not shown) [Analog M-1180, F5c-PIF-Abzp], in experiment [1] (read-out: SHP-77 In vitro IC50), the IC50 is 3.2 µM. In addition, the “A-549 In vivo % inhib.” value in experiment [2] was determined as 23%. In experiment [3], the “PC3 In vivo % inhib.” value is reported as 53%.
On to `COc1ccc2c(c1)c(CC(=O)NC(Cc1ccc(OCc3c(Cl)cccc3Cl)cc1)C(=O)NC1CC(C)(C)NC(C)(C)C1)c(C)n2C(=O)c1ccc(Cl)cc1` (stereo not shown) [Analog M-1376, Indo-OC2Y-Atmp], for which the figures for the IC50 in experiment [1] (read-out: SCLC SHP-77 IC50) and in experiment [4] were 1.5 µM and 1.8 µM, respectively. Also, in experiment [2], the “A-549 In vivo % inhib.” value was found to be 18%. Also, in experiment [3], the “PC3 In vivo % inhib.” value amounted to 44%.
On to `CC1(C)CC(NC(=O)C(Cc2ccc(OCc3c(Cl)cccc3Cl)cc2)NC(=O)CCCc2c[nH]c3ccccc23)CC(C)(C)N1` (stereo not shown) [Analog M-1364, 3Ibu-OC2Y-Atmp], for which the IC50 in experiment [1] (read-out: SCLC SHP-77 IC50) was found to be 7.2 µM. In experiment [2], the “A-549 In vivo % inhib.” value worked out at 50%. Further, the “PC3 In vivo % inhib.” value in experiment [3] is given as 9%.
Regarding `O=C(NC(Cc1ccc2ccccc2c1)C(=O)N(Cc1ccccn1)Cc1ccccn1)C(c1ccc(Cl)cc1)c1ccc(Cl)cc1` (stereo not shown) [Analog M-1214, Bcpa-Nal-Dpic], the IC50 in experiment [1] (read-out: SHP-77 In vitro IC50) worked out at 7.3 µM. In addition, the “A-549 In vivo % inhib.” value in experiment [2] is 24%. In addition, the “PC3 In vivo % inhib.” value in experiment [3] stood at 37%.
For `CC1(C)CC(NC(=O)C(Cc2ccc(OCc3c(Cl)cccc3Cl)cc2)NC(=O)C(c2ccccc2)C2CCCCC2)CC(C)(C)N1` (single isomer, unassigned) [M-1124#1, Chpa-OC2Y-Atmp] the same measures were 1.7 µM, 50% and “Stim”.
Take `CC1(C)CC(NC(=O)C(Cc2ccc(OCc3c(Cl)cccc3Cl)cc2)NC(=O)C=Cc2cc(F)cc(F)c2F)CC(C)(C)N1` (stereo not shown) [Analog M-1388, F3c-OC2Y-Atmp]: in experiment [1] (read-out: SCLC SHP-77 IC50), the IC50 stood at 1.6 µM. The “A-549 In vivo % inhib.” value in experiment [2] is given as 21%. For the same compound, the “PC3 In vivo % inhib.” value in experiment [3] is given as “Stim”.
`COc1ccc(C=CC(=O)NC(Cc2ccc(OCc3c(Cl)cccc3Cl)cc2)C(=O)NC2CC(C)(C)NC(C)(C)C2)cc1OC` (stereo not shown) [Analog M-1362, 3,4Dmc-OC2Y-Atmp]: in experiment [1] (read-out: SCLC SHP-77 IC50), the IC50 was found to be 4 µM. Also, the “A-549 In vivo % inhib.” value in experiment [2] is recorded as 21%.
Consider `CC1(C)CC(NC(=O)C(Cc2ccc(OCc3c(Cl)cccc3Cl)cc2)NC(=O)C2CCn3c(C(=O)c4ccccc4)ccc32)CC(C)(C)N1` (stereo not shown) [Analog M-1394, Ktlc-OC2Y-Atmp], for which the IC50 in experiment [1] (read-out: SCLC SHP-77 IC50) was determined as 2.9 µM; in experiment [4], 4.9 µM. Further, in experiment [2], the “A-549 In vivo % inhib.” value turned out to be 68%. Moreover, the “PC3 In vivo % inhib.” value in experiment [3] is “Stim”.
As for `CC1(C)CC(NC(=O)C(Cc2ccc(OCc3c(Cl)cccc3Cl)cc2)NC(=O)C(C)(c2ccccc2)c2ccccc2)CC(C)(C)N1` (stereo not shown) [Analog M-1126, 22Dp-OC2Y-Atmp], the IC50 in experiment [1] (read-out: SHP-77 In vitro IC50) worked out at 4 µM. Also, the “A-549 In vivo % inhib.” value in experiment [2] is listed as 36%.
In the case of `CC1(C)CC(NC(=O)C(Cc2ccc(OCc3c(Cl)cccc3Cl)cc2)NC(=O)Cc2ccccc2Nc2c(Cl)cccc2Cl)CC(C)(C)N1` (stereo not shown) [Analog M-1382, Dfc-OC2Y-Atmp], in experiment [1] (read-out: SCLC SHP-77 IC50), the IC50 came to 2.9 µM. In addition, the “A-549 In vivo % inhib.” value in experiment [2] is on record as 46%.
As for `O=C(NC1CCN(Cc2ccccc2)CC1)C(Cc1c(F)c(F)c(F)c(F)c1F)NC(=O)C(c1ccc(Cl)cc1)c1ccc(Cl)cc1` (stereo not shown) [Analog M-1188, Bcpa-F5F-Abzp], the IC50 in experiment [1] (read-out: SHP-77 In vitro IC50) was found to be 4.5 µM. The “A-549 In vivo % inhib.” value in experiment [2] was 17%.
As to `CCCCCCC(O)CC=CCCCCCCCC(=O)NC(Cc1ccc(OCc2c(Cl)cccc2Cl)cc1)C(=O)NC1CC(C)(C)NC(C)(C)C1` (stereo not shown) [Analog M-1128, Rio-OC2Y-Atmp], the IC50 in experiment [1] (read-out: SHP-77 In vitro IC50) came to 1.6 µM. Also, the “A-549 In vivo % inhib.” value in experiment [2] was determined as 48%. Besides, in experiment [3], the “PC3 In vivo % inhib.” value is given as 44%.
Turning to `CC(=O)Oc1ccccc1C(=O)NC(Cc1ccc(OCc2c(Cl)cccc2Cl)cc1)C(=O)NC1CC(C)(C)NC(C)(C)C1` (stereo not shown) [Analog M-1378, Aspr-OC2Y-Atmp], the IC50 in experiment [1] (read-out: SCLC SHP-77 IC50) is 2.9 µM; in experiment [4], 3.5 µM. The “A-549 In vivo % inhib.” value in experiment [2] was 9%. The “PC3 In vivo % inhib.” value in experiment [3] is “Stim”.
`CC(C)=CCCC(C)CC(=O)NC(Cc1ccc(OCc2c(Cl)cccc2Cl)cc1)C(=O)NC1CC(C)(C)NC(C)(C)C1` (stereo not shown) [Analog M-1366, Dmo-OC2Y-Atmp]: the IC50 in experiment [1] (read-out: SCLC SHP-77 IC50) was 3.8 µM. The “A-549 In vivo % inhib.” value in experiment [2] was determined as 14%.
Turning to `CC1(C)CC(NC(=O)C(Cc2ccc(-c3ccccc3)cc2)NC(=O)C=Cc2c(F)c(F)c(F)c(F)c2F)CC(C)(C)N1` (stereo not shown) [Analog M-1174, F5c-Bip-Atmp], the IC50 in experiment [1] (read-out: SHP-77 In vitro IC50) is 3.7 µM. Also, the “A-549 In vivo % inhib.” value in experiment [2] worked out at 57%. Moreover, in experiment [3], the “PC3 In vivo % inhib.” value came to 37%.
With `CC1(C)CC(NC(=O)[C@H](Cc2ccc(C#N)cc2)NC(=O)c2ccccn2)CC(C)(C)N1` [Analog M-1352, Pic-PCNF-Atmp], the IC50 in experiment [1] (read-out: SCLC SHP-77 IC50) is > 60 µM. Further, the “A-549 In vivo % inhib.” value in experiment [2] is on record as 21%.
Take `CC1(C)CC(NC(=O)C(Cc2ccc(OCc3c(Cl)cccc3Cl)cc2)NC(=O)C(c2ccccc2)C2CCCCC2)CC(C)(C)N1` (single isomer, unassigned) [M-1124#2, Chpa-OC2Y-Atmp]: in experiment [1] (read-out: SHP-77 In vitro IC50), the IC50 turned out to be 3.5 µM. For the same compound, the “A-549 In vivo % inhib.” value in experiment [2] was 4.5%.
